Measured values reported in ChEMBL document CHEMBL5150064 (J Med Chem, 2022).
In brackets after ≈: the same amount, converted by molar mass.

What was measured:
[1] = biological target: T1, Phosphatidylinositol 4,5-bisphosphate 3-kinase catalytic subunit delta isoform (Homo sapiens) (UniProt O00329); assay: Inhibition of PI3Kdelta in human B-cells assessed as reduction in CD69 expression preincubated for 1 hr followed by IgM stimulation for 18 hrs by flow cytometry analysis; format: cell-based; conditions: B-cell
T1 sequence (whole entry): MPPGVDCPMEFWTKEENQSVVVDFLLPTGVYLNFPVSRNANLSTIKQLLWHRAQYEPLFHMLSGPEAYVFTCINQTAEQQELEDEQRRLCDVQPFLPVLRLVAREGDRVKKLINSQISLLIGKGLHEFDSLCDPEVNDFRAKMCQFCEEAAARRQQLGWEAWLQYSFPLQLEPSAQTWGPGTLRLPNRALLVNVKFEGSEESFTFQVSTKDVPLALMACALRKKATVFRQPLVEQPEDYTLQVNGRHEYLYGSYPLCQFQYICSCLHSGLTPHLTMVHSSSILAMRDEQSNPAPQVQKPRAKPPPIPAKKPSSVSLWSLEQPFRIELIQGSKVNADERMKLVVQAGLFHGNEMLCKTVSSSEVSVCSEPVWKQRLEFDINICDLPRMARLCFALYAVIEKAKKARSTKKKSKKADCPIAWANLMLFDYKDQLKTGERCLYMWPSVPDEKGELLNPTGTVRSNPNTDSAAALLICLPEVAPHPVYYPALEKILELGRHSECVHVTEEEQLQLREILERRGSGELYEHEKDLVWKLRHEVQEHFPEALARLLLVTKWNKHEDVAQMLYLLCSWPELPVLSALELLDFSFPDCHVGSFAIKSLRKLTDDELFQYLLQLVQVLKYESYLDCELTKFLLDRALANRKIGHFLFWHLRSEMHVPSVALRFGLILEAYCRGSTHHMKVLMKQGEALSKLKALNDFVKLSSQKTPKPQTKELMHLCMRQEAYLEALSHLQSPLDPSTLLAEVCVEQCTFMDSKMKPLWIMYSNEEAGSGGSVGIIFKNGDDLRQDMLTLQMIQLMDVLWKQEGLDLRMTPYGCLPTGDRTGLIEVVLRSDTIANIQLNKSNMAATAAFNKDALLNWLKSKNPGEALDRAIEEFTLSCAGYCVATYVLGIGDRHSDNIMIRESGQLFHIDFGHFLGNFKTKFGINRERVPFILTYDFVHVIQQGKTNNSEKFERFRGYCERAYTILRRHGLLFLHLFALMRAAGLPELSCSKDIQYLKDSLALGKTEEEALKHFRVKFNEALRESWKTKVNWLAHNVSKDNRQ

[2] = Thermodynamic aqueous solubility of the compound at pH 7.4; format: physicochemical; conditions: read-out: Therm_solubility
[3] = Thermodynamic solubility of the compound in FaSSGF; format: physicochemical; conditions: read-out: Therm_solubility
[4] = Thermodynamic solubility of the compound in FaSSIF; format: physicochemical; conditions: read-out: Therm_solubility
[5] = Oral bioavailability in NCR nude mouse at 50 mg/kg measured upto 8 hrs by LC-MS/MS analysis; format: ADME, organism-based; conditions: in vivo
Homo sapiens = species on record: Homo sapiens; assay: Inhibition of PI3KC2b (unknown origin) at 1 uM relative to control
hERG (KCNH2) = hERG (KCNH2) (Homo sapiens, UniProt Q12809); assay: Inhibition of human ERG at 10 uM relative to control; format: toxicity
Chain of hERG (KCNH2) (Q12809 whole entry): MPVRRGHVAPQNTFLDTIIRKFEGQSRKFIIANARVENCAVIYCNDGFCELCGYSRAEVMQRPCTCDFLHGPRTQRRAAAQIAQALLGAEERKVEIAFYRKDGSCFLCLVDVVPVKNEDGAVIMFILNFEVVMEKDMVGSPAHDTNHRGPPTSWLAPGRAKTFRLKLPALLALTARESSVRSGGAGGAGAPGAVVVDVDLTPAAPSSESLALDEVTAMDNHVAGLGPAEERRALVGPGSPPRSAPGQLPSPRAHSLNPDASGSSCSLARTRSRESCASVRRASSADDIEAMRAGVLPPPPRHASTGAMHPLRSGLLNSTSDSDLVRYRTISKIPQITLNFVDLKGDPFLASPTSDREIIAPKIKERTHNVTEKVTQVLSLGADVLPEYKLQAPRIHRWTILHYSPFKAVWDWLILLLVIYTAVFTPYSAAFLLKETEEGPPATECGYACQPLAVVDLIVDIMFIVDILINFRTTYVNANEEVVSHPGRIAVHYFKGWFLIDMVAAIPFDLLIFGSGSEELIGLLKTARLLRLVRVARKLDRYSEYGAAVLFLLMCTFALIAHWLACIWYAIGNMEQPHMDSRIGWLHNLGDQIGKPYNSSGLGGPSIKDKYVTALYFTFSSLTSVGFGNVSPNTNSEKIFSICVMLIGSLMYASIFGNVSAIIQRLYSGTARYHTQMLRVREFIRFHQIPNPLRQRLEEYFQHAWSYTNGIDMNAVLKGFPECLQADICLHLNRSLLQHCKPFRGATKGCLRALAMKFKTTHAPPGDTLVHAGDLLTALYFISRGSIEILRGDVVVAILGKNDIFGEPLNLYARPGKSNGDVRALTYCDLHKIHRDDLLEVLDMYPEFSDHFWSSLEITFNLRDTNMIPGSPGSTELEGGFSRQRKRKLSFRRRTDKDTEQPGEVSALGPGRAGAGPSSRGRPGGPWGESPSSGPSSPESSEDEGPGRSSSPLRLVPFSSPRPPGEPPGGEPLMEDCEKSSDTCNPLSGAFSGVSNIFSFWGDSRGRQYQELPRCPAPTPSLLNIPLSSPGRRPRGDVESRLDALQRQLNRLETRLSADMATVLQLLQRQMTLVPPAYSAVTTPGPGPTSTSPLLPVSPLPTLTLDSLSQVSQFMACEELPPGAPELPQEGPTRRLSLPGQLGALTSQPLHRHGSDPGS

NaV1.5 = NaV1.5 (Homo sapiens, UniProt Q14524); assay: Inhibition of human NaV1.5 at 10 uM relative to control
Chain of NaV1.5 (Q14524 whole entry): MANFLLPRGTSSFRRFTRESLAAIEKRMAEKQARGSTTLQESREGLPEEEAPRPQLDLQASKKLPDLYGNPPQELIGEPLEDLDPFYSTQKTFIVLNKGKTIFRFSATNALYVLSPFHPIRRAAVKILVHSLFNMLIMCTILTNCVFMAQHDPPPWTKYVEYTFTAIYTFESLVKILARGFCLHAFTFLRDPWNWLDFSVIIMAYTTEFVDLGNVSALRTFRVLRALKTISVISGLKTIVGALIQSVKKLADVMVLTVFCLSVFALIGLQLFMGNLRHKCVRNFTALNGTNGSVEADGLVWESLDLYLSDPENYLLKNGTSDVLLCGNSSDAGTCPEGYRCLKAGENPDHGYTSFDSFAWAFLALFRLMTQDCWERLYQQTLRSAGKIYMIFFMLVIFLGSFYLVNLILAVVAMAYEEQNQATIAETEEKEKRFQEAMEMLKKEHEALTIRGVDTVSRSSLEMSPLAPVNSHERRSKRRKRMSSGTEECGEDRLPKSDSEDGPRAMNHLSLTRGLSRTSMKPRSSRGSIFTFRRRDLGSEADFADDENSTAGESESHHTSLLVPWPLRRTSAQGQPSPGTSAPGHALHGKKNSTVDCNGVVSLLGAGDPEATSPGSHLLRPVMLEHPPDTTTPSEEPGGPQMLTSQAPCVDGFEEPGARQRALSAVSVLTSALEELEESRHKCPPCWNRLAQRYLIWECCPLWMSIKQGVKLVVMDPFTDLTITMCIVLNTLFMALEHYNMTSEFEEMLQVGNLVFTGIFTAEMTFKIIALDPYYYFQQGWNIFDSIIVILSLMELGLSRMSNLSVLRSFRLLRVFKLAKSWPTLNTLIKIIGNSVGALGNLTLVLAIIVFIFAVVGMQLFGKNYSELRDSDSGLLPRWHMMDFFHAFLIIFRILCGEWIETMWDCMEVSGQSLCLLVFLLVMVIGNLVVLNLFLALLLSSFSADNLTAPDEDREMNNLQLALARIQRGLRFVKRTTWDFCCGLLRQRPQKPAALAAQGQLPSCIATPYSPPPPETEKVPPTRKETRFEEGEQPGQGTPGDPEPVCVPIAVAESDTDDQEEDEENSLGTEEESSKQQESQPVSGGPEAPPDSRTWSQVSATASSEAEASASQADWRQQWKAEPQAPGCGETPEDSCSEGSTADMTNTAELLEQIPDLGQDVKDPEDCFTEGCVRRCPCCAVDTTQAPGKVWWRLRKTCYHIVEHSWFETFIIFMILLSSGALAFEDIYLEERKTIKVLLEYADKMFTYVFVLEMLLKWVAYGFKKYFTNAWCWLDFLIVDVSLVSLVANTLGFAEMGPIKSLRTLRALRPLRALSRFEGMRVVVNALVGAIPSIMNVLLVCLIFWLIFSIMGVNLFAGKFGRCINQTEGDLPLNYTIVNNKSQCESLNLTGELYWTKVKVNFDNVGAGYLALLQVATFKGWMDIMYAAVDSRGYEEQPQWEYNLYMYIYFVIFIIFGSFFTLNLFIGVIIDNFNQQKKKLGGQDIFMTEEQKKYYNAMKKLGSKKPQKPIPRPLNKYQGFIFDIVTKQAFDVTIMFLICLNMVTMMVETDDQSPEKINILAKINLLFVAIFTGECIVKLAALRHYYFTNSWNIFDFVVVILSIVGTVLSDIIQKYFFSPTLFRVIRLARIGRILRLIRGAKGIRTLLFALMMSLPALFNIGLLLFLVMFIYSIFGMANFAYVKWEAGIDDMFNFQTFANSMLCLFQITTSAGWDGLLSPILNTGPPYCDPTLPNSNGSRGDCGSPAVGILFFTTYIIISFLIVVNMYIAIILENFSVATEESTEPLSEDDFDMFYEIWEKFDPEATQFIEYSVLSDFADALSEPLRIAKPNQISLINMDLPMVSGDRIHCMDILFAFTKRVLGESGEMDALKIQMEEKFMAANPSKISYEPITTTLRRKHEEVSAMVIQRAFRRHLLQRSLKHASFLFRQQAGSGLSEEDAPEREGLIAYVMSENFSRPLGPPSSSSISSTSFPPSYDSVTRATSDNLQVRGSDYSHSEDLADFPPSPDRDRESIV

Cytochrome P450 3A4 = Cytochrome P450 3A4 (Homo sapiens, UniProt P08684); assay: Inhibition of CYP3A4 (unknown origin); format: ADME
Chain of Cytochrome P450 3A4 (P08684 whole entry): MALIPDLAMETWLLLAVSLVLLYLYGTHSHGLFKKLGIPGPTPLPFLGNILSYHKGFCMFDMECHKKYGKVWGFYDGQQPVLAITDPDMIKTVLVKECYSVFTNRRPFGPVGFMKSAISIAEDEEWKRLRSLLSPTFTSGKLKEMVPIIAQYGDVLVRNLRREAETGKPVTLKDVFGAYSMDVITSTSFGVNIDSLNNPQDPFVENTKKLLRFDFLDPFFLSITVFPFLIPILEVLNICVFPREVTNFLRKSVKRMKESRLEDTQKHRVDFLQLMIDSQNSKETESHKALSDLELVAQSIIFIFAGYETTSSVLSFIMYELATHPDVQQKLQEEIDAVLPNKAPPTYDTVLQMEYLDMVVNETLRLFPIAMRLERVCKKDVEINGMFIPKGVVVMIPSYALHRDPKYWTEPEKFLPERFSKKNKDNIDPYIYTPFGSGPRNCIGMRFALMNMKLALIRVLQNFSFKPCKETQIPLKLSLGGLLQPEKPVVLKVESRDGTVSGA

Cytochrome P450 2D6 = Cytochrome P450 2D6 (Homo sapiens, UniProt P10635); assay: Inhibition of CYP2D6 (unknown origin); format: ADME
Cytochrome P450 2C9 = Cytochrome P450 2C9 (Homo sapiens, UniProt P11712); assay: Inhibition of CYP2C9 (unknown origin); format: ADME
[6] = biological target: Phosphatidylinositol 4,5-bisphosphate 3-kinase catalytic subunit alpha isoform (Homo sapiens, UniProt P42336, H1047R)
Chain of Phosphatidylinositol 4,5-bisphosphate 3-kinase catalytic subunit alpha isoform (P42336 whole entry H1047R, canonical isoform): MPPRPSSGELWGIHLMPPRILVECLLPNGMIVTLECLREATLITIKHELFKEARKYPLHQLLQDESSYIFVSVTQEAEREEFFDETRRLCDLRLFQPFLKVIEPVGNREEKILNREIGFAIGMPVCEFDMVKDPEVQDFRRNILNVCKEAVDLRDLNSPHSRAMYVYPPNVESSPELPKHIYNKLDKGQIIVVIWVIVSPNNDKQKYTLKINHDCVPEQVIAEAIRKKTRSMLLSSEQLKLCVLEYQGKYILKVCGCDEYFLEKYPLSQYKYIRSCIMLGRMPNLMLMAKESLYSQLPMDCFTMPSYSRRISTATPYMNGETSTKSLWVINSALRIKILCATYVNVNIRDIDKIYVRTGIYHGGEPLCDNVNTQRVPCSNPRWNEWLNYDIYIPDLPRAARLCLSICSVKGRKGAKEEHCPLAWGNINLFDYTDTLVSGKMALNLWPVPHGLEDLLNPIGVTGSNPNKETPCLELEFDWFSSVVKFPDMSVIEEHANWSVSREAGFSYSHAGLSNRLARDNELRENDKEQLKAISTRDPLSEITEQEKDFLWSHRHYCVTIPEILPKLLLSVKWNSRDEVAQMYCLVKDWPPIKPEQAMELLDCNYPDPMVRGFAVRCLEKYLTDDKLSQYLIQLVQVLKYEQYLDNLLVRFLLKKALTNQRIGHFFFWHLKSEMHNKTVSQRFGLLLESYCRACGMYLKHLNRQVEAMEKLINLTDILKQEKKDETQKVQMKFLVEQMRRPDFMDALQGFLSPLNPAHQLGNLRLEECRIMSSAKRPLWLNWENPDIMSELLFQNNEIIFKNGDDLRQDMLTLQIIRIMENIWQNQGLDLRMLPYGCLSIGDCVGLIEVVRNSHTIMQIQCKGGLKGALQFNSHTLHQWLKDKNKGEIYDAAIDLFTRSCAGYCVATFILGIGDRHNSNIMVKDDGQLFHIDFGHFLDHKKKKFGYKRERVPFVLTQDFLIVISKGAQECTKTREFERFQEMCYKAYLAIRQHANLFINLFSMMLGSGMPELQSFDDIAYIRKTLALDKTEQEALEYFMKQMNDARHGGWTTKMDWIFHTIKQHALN

IC90 [1]: 276 nM
solubility thermodynamic [2]: 38 µg/mL (≈ 93.3 µM)
solubility thermodynamic [3]: 1600 µg/mL (≈ 3930 µM)
solubility thermodynamic [4]: 36 µg/mL (≈ 88.4 µM)
bioavailability [5]: 59%
inhibition (Homo sapiens): > 80%
IC50 (Cytochrome P450 3A4): > 10000 nM
IC50 (Cytochrome P450 2D6): > 10000 nM
IC50 (Cytochrome P450 2C9): > 10000 nM
EC50 [6]: 19 nM
SMILES: C[C@H](Nc1ccc2c(c1)OCCn1cc(N3C(=O)OC[C@H]3C(F)F)nc1-2)C(N)=O [INAVOLISIB]
inhibition at 10 µM (hERG (KCNH2)): < 20%
inhibition at 10 µM (NaV1.5): < 20%
